Assay results reported in patent US20040063721A1, “Agonism of the 5HT2A receptor for treatment of thermoregulatory dysfunction” (Wyeth, priority 2002, published 2004).
“Also recorded” adds a separate entry of the source.

Tested on: morphine-dependent rat model of vasomotor instability
Assay: Morphine-dependent naloxone-induced flush model (tail skin temperature)
Format: in vivo
Settings: for effect on basal tail skin temperature prior to administration of naloxone: ovariectomized morphine-dependent rats, MDL-100907 0.3, 1 mg/kg, DOI 1 mg/kg, FIG. 1
[1] = Example 3, fluoxetine 10 mg/kg sc 1 h prior and/or WAY-100635 1 mg/kg sc 20 min prior to naloxone, FIG. 3
[2] = Example 1, sc 20 min prior to naloxone
[3] = Example 2, sc 20 min prior to naloxone, 5HT2c agonist 0.1, 3.0 mg/kg, 5HT2c antagonist 0.1, 1.0 mg/kg, FIG. 2

Structure (SMILES): COc1ccccc1N1CCN(CCN(C(=O)C2CCCCC2)c2ccccn2)CC1 [WAY-100635, N-[2-[4-(2-Methoxyphenyl)-1-piperazinyl]ethyl]-N-2-pyridinylcyclohexanecarboxamide]
- abatement of naloxone-induced flush (changes in TST, Δ°C, mean, over time) [1]: did not significantly abate naloxone-induced flush
- ED50 (Rattus norvegicus, 0.25 h, Example 4, WAY-100635 0.01, 0.1 or 1.0 mg/kg sc combined with fluoxetine 10 mg/kg, 15 min post-naloxone, FIG. 4B, read-out: ED50 value, abatement of naloxone-induced flush at maximal flush): 0.01 ± 0.009 mg/kg

Structure (SMILES): COc1cccc([C@H](O)C2CCN(CCc3ccc(F)cc3)CC2)c1OC [MDL-100907]
- effect on basal tail skin temperature prior to administration of naloxone [2]: significantly induced an increase in tail skin temperature
- effect on the combination drug abatement of the naloxone-induced flush at maximal flush (Example 5, MDL-100907 0.01 or 0.1 mg/kg 55 min prior to naloxone, then fluoxetine 10 mg/kg + WAY-100635 0.01 mg/kg, 15 min post-naloxone, FIG. 5A): dose-dependently reversed
- effect on fluoxetine (10 mg/kg) action on naloxone-induced flush at maximal flush (Example 5, MDL-100907 0.01 or 0.1 mg/kg 55 min prior to naloxone, then fluoxetine 10 mg/kg, 15 min post-naloxone, FIG. 5B): potentiated
- effect on fluoxetine (30 mg/kg) abatement of naloxone-induced hot flush (Example 5, MDL-100907 0.01 or 0.1 mg/kg prior to fluoxetine 30 mg/kg, FIG. 5C): potentiated the abatement effect

Structure (SMILES): COc1cc(CC(C)N)c(OC)cc1I.Cl (stereo not shown) [DOI, 1-(2,5-dimethoxy-4-iodophenyl)-2-aminopropane hydrochloride]
- abatement of naloxone-induced flush (change in TST) (Example 1, DOI 1 mg/kg sc 20 min prior to naloxone, FIG. 1B, hydrochloride): preventing a naloxone-induced increase in tail-skin temperature; also recorded: significantly abated the naloxone-induced flush
- effect on basal tail skin temperature prior to administration of naloxone [2]: without affecting basal tail skin temperature

Structure (SMILES): Cc1cc2c(cc1Cl)N(C(=O)Nc1ccc(Oc3cccnc3C)nc1)CC2 [6-Chloro-5-methyl-1-[[2-[(2-methyl3-pyridyl)oxy]-5-pyridyl]carbamoyl]indoline]
- abatement of naloxone-induced flush (changes in TST, Δ°C, mean, over time) [3]: did not significantly abate naloxone-induced flush

Structure (SMILES): CNCCC(Oc1ccc(C(F)(F)F)cc1)c1ccccc1 (stereo not shown) [fluoxetine]
- abatement of naloxone-induced flush (changes in TST, Δ°C, mean, over time) [1]: did not significantly abate naloxone-induced flush
- abatement of naloxone-induced flush by fluoxetine alone (Example 5, fluoxetine 10 mg/kg sc): ineffective
- abatement of naloxone-induced hot flush by fluoxetine alone (Example 5, fluoxetine 30 mg/kg sc): abates a naloxone-induced hot flush

Structure (SMILES): c1cc2c3c(c1)[C@H]1CCC[C@H]1N3CCNC2 [(7bR, 10aR)-1,2,3,4,8,9,10,10a-octahydro-7bH-cyclopenta[b][1,4]diazepino[6,7,1-hi]indole]
- abatement of naloxone-induced flush (changes in TST, Δ°C, mean, over time) [3]: did not significantly abate naloxone-induced flush
